Experimental data published in patent US11999727B2 (Tango Therapeutics, Inc., priority 2020, dated 2024).

Columns and labels:
PRMT5 [1] = target: T1, PRMT5 (Homo sapiens, UniProt O14744); assay: PRMT5 biochemical IC50 assay with SAM as cofactor; settings: PRMT5, SAM as cofactor; read-out: SAM IC50
T1 construct: purchased Viva (custom protein)

PRMT5 [2] = target: T1, PRMT5; assay: PRMT5 biochemical IC50 assay with no cofactor; settings: PRMT5, no cofactor
Source text: Table 1 indicates IC50 values (μM) against PRMT5 for exemplary compounds in the presence of SAM as cofactor, with no cofactor, and with MTA as cofactor, respectively (columns 4-6). […] Ki values can be calculated from the IC50 values as described in the Examples section. As detailed in the Examples section, for the assay performed in the presence of SAM, IC50=Ki×1.5 (Ki=IC50/1.5).

PRMT5 [3] = target: T1, PRMT5; assay: PRMT5 biochemical IC50 assay with MTA as cofactor; settings: PRMT5, MTA as cofactor; read-out: MTA IC50
[4] = test system: HAP1 MTAP-intact cell line; assay: SDMA in-cell western assay, HAP1 MTAP-intact; type: cell-based; settings: Homo sapiens, HAP1, SDMA in-cell western, HAP1 MTAP-intact; read-out: MTAP HAP1 intact IC50
Procedure, shortened: (§1)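 MTAP-null vs endogenous-MTAP HAP1 isogenic cells; in-cell western SDMA readout; IC50 per line.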

[5] = test system: HAP1 MTAP-deleted cell line; assay: SDMA in-cell western assay, HAP1 MTAP-deleted; type: cell-based; settings: for IC50: Homo sapiens, HAP1, SDMA in-cell western, HAP1 MTAP-deleted; for MTAP intact/deleted ratio: SDMA in-cell western
Procedure, shortened: as §1

[6] = test system: HAP1 MTAP-deleted cell line; assay: Viability assay, MTAP-deleted cell line; type: cell-based; settings: Homo sapiens, read-out: HAP1 MTAP deleted viability
Source text: Table 1 additionally indicates IC50 values in a viability assay for the MTAP-deleted cell line (column 10), indicating the effect of treatment with compound on cell survival.

[7] = read-out: HAP1 MTAP deleted IC50
[8] = IC50 ratio HAP1 MTAP-intact vs HAP1 MTAP-deleted
[9] = HAP1, viability assay, MTAP-deleted cell line
[10] = IC50 ratio HAP1 MTAP-intact / HAP1 MTAP-deleted
[11] = read-out: HAP 1 MTAP deleted IC50
[12] = read-out: No Cofactor/ rel IC50
[13] = HAP1, viability, HAP1 MTAP-deleted cell line

T1 sequence (O14744 whole entry): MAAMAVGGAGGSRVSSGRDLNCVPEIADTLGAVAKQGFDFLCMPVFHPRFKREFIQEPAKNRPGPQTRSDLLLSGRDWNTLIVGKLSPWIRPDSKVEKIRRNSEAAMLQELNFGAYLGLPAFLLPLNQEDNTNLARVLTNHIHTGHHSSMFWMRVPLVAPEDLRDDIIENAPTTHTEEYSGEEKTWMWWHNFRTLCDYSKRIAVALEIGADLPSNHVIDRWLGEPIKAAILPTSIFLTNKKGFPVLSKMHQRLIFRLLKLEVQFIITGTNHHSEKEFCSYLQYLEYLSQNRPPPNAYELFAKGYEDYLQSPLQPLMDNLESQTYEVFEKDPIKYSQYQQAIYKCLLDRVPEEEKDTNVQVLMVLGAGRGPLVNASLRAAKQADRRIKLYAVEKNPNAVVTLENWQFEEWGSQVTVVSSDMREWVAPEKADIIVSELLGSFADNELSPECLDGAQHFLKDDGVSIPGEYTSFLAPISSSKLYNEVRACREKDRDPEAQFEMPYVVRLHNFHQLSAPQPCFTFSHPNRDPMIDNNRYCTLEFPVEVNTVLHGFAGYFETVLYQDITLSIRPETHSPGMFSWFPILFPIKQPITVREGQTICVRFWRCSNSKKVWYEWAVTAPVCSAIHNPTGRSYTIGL
T1 sequence (Q9BQA1 whole entry partner): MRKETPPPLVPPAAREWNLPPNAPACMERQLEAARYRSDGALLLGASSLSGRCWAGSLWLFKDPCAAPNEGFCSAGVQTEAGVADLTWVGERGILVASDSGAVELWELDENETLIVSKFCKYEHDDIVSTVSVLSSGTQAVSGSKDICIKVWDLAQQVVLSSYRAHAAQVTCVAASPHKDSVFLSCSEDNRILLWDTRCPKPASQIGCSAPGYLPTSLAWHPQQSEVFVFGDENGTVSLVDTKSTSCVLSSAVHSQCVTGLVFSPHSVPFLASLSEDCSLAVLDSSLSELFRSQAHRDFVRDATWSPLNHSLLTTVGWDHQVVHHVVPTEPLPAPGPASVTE

| IC50 (PRMT5 [1]) | IC50 (PRMT5 [2]; read-out: No Cofactor/rel IC50) | IC50 (PRMT5 [3]) | IC50 [4] | IC50 [5, 7] | IC50 [5, 11] | IC50 (PRMT5 [2]; [12]) | Compound | MTAP intact/deleted ratio [5, 8] | IC50 [6, 9] | MTAP intact/deleted ratio [5, 10] | IC50 ([6]; HAP1, viability assay, HAP1 MTAP-deleted) | IC50 ([6]; HAP1, viability IC50, MTAP-deleted cell line) | IC50 [6, 13] |
| --- | --- | --- | --- | --- | --- | --- | --- | --- | --- | --- | --- | --- | --- |
| 50 to 500 nM | 50 to 500 nM | 50 to 500 nM | > 1000 nM | 100 to 1000 nM |  |  | COc1ccc([C@@H]2CC[C@@H](C)CN2C(=O)C(=O)Nc2cncc(C(N)=O)c2)cc1 (racemic) [Compound 228, rac-5-{2-[(2R,5S)-2-(4-Methoxyphenyl)-5-methylpiperidin-1-yl]-2-oxoacetamido}pyridine-3-carboxamide] |  | 1000 to 10000 nM | A (an IC50 ratio greater than or equal to 10 fold) |  |  |  |
| 50 to 500 nM | 50 to 500 nM | < 50 nM | > 1000 nM | 100 to 1000 nM |  |  | Cc1ccc([C@@H]2CC[C@@H](C)CN2C(=O)C(=O)Nc2cncc(C(N)=O)c2)cc1C (racemic) [Compound 180, rac-5-{2-[(2R,5S)-2-(3,4-Dimethylphenyl)-5-methylpiperidin-1-yl]-2-oxoacetamido}pyridine-3-carboxamide] |  | 1000 to 10000 nM | A (an IC50 ratio greater than or equal to 10 fold) |  |  |  |
| 50 to 500 nM | 50 to 500 nM | < 50 nM | > 1000 nM | > 1000 nM |  |  | C[C@@H]1CC[C@@H](c2ccc3c(c2)CNC3=O)N(C(=O)C(=O)Nc2cncc(C(N)=O)c2)C1 (single isomer, unassigned) [Compound 740, 5-(2-(5-methyl-2-(1-oxoisoindolin-5-yl)piperidin-1-yl)-2-oxoacetamido)nicotinamide] |  |  | B (an IC50 ratio greater than or equal to 3 fold but lower than 10 fold) | 1000 to 10000 nM |  |  |
| > 500 nM | 50 to 500 nM | 50 to 500 nM | > 1000 nM |  | 100 to 1000 nM |  | Cc1ccc([C@@H]2CC[C@@H](C)CN2C(=O)C(=O)Nc2cnc(N)c(C)c2)nc1 (racemic) [Compound 1005, N-(6-Amino-5-methyl-3-pyridyl)-2-[(2R,5S)-5-methyl-2-(5-methyl-2-pyridyl)-1-piperidyl]-2-oxo-acetamide] |  | 1000 to 10000 nM | A (an IC50 ratio greater than or equal to 10 fold) |  |  |  |
| > 500 nM | > 500 nM | > 500 nM | > 1000 nM | > 1000 nM |  |  | C[C@@H]1CN(C(=O)C(=O)Nc2cncc(C(N)=O)c2)[C@@H](c2ccccc2)CC1(F)F (single isomer, unassigned) [Compound 473] |  | > 10000 nM | C (an IC50 ratio of less than 3 fold) |  |  |  |
| > 500 nM | > 500 nM | > 500 nM | > 1000 nM |  | > 1000 nM |  | Cc1cc(NC(=O)C(=O)N2C[C@H](C)CC[C@H]2c2ccc(C(F)F)nc2)cnc1N (single isomer, unassigned) [Compound 1011] |  | > 10000 nM | C (an IC50 ratio of less than 3 fold) |  |  |  |
| 50 to 500 nM | 50 to 500 nM | < 50 nM | > 1000 nM | < 100 nM |  |  | Cc1ccc([C@@H]2CC[C@@H](C)CN2C(=O)C(=O)Nc2cncc(C(N)=O)c2)cc1Cl (racemic) [Compound 179, rac-5-{2-[(2R,5S)-2-(3-Chloro-4-methylphenyl)-5-methylpiperidin-1-yl]-2-oxoacetamido}pyridine-3-carboxamide] |  | 1000 to 10000 nM | A (an IC50 ratio greater than or equal to 10 fold) |  |  |  |
| 50 to 500 nM | 50 to 500 nM | 50 to 500 nM | > 1000 nM | 100 to 1000 nM |  |  | C[C@@H]1CN(C(=O)C(=O)Nc2cncc(C(N)=O)c2)[C@@H](c2ccccc2)C[C@H]1O (racemic) [Compound 459, rac-5-[[2-[(2R,4R,5R)-4-hydroxy-5-methyl-2-phenyl-1-piperidyl]-2-oxo-acetyl]amino]pyridine-3-carboxamide] |  | > 10000 nM | A (an IC50 ratio greater than or equal to 10 fold) |  |  |  |
| 50 to 500 nM | 50 to 500 nM | < 50 nM | > 1000 nM | < 100 nM |  |  | C[C@@H]1CC[C@@H](c2ccc(NCC(=O)N(C)C)cc2)N(C(=O)C(=O)Nc2cncc(C(N)=O)c2)C1 (single isomer, unassigned) [Compound 437] |  | 1000 to 10000 nM | A (an IC50 ratio greater than or equal to 10 fold) |  |  |  |

More lines, now with the values behind:

| Compound | IC50 (PRMT5 [1]) | IC50 (PRMT5 [2]; read-out: No Cofactor/rel IC50) | IC50 (PRMT5 [3]) | IC50 [4] | IC50 [5, 7] | IC50 [5, 11] | IC50 (PRMT5 [2]; [12]) | MTAP intact/deleted ratio [5, 8] | IC50 [6, 9] | MTAP intact/deleted ratio [5, 10] | IC50 ([6]; HAP1, viability assay, HAP1 MTAP-deleted) | IC50 ([6]; HAP1, viability IC50, MTAP-deleted cell line) | IC50 [6, 13] |
| --- | --- | --- | --- | --- | --- | --- | --- | --- | --- | --- | --- | --- | --- |
| CCc1cc(NC(=O)C(=O)N2C[C@@H](C)CC[C@@H]2c2ccc3sc([C@H]4C[C@H](N(C)C)C4)nc3c2)cnc1N [Compound 1101, N-(6-amino-5-ethylpyridin-3-yl)-2-((2R,5S)-2-(2-(3-(dimethylamino)cyclobutyl)benzo[d]thiazol-5-yl)-5-methylpiperidin-1-yl)-2-oxoacetamide] | < 50 nM | < 50 nM | < 50 nM | < 100 nM | < 100 nM |  |  | A (an IC50 ratio greater than or equal to 10 fold) | < 1000 nM |  |  |  |  |
| CCc1cc(NC(=O)C(=O)N2C[C@@H](C)CC[C@@H]2c2cnc3c(c2)CCC(=O)N3)cnc1N (racemic) [Compound 916, rac-N-(6-Amino-5-ethyl-3-pyridyl)-2-[(2S,5R)-5-methyl-2-(7-oxo-6,8-dihydro-5H-1,8-naphthyridin-3-yl)-1-piperidyl]-2-oxo-acetamide] | > 500 nM | 50 to 500 nM | 50 to 500 nM | > 1000 nM |  | < 100 nM |  |  | 1000 to 10000 nM | A (an IC50 ratio greater than or equal to 10 fold) |  |  |  |
| Cc1cc(NC(=O)C(=O)N2CC(C)(C)CCC2c2ccccc2)cnc1N (racemic) [Compound 56, N-(6-amino-5-methylpyridin-3-yl)-2-(5,5-dimethyl-2-phenylpiperidin-1-yl)-2-oxoacetamide] | 50 to 500 nM |  | 50 to 500 nM | 100 to 1000 nM |  | < 100 nM | 50 to 500 nM |  | 1000 to 10000 nM | B (an IC50 ratio greater than or equal to 3 fold but lower than 10 fold) |  |  |  |
| CCc1cc(NC(=O)C(=O)N2C[C@@H](C)CC[C@@H]2c2cccc(CCN(C)C)c2)cnc1N [Compound 1226, N-(6-amino-5-ethylpyridin-3-yl)-2-((2R,5S)-2-(3-(2-(dimethylamino)ethyl)phenyl)-5-methylpiperidin-1-yl)-2-oxoacetamide] | 50 to 500 nM | < 50 nM | < 50 nM | 100 to 1000 nM | < 100 nM |  |  | A (an IC50 ratio greater than or equal to 10 fold) | < 1000 nM |  |  |  |  |
| Cc1cc(NC(=O)C(=O)N2C[C@@H](C)CC[C@@H]2c2ccc(-c3cn[nH]c3)cc2)cnc1N (single isomer, unassigned) [Compound 629] | > 500 nM | > 500 nM | > 500 nM | > 1000 nM |  | > 1000 nM |  |  |  | B (an IC50 ratio greater than or equal to 3 fold but lower than 10 fold) |  | > 10000 nM |  |
| CCc1cc(NC(=O)C(=O)N2C[C@@H](C)CC[C@@H]2c2cccc([C@H]3CCN(C)C3)c2)cnc1N [Compound 1342, N-(6-amino-5-ethylpyridin-3-yl)-2-((2R,5S)-5-methyl-2-(3-(1-methylpyrrolidin-3-yl)phenyl)piperidin-1-yl)-2-oxoacetamide] | < 50 nM |  | < 50 nM | 100 to 1000 nM |  | < 100 nM | < 50 nM |  |  | A (an IC50 ratio greater than or equal to 10 fold) |  |  | < 1000 nM |
| COc1ncc(NC(=O)C(=O)N2C[C@@H](C)CC[C@@H]2c2ccc3nn([C@H]4CCN(C)C4)cc3c2)cc1C(N)=O (racemic) [Compound 1318, 2-Methoxy-5-[[2-oxo-2-[rac-(2R,5S)-5-methyl-2-[2-[rac-(3S)-1-methylpyrrolidin-3-yl]indazol-5-yl]-1-piperidyl]acetyl]amino]pyridine-3-carboxamide] | 50 to 500 nM |  | < 50 nM | 100 to 1000 nM |  | < 100 nM | < 50 nM |  |  | A (an IC50 ratio greater than or equal to 10 fold) |  |  | < 1000 nM |
| CCc1cc(NC(=O)C(=O)N2C[C@@H](C)CC[C@@H]2c2ccc3sc([C@H](C)N(C)C)nc3c2)cnc1N (single isomer, unassigned) [Compound 1188] | 50 to 500 nM | < 50 nM | < 50 nM | < 100 nM | < 100 nM |  |  | A (an IC50 ratio greater than or equal to 10 fold) | < 1000 nM |  |  |  |  |
